Converted amounts (≈) assume the structure as drawn. Where two headings read alike, the source gives them in different places.
Assays:
Type in all cases: cell-based
[1] = tested on: Aspergillus flavus ATCC MYA-1004; experiment: In vitro antifungal activity (MIC80), Aspergillus flavus ATCC MYA-1004; conditions: Aspergillus flavus; Table 3, MYA-1004; read-out: Minimal inhibitory concentration (MIC80)
Method: (§1) In vitro antifungal activities of the inventive antifungal compounds were evaluated using test strains including Candida albican (ATCC 90873, 204276, 62342, 64124, 64550, 96901, MYA-573, MYA-574, MYA-575, MYA-576, MYA-1003) and Aspergillus fumigatus (ATCC 16424). Test samples and positive control samples were prepared by dissolving the inventive compounds and comparative compounds, i.e., amphotericin B, fluconazole and itraconazole, in DMSO, respectively, and each successively diluted with medium to obtain test and positive control solutions having test compound concentrations of 0.125 μg/ml to a maximum concentration not generating turbidity. Minimal inhibitory concentration (MIC80) of each compound was determined as the lowest concentration of the test compounds required to reduce growth by 80% relative to a control strain not treated.
(§2) 3) Preparation of test samples: the inventive compounds and comparative compounds were each diluted with DMSO to obtain 1 to 2 ml of a test sample in a concentration of 100-folds of the determining maximum concentration (256 μg/ml).
(§3) The test samples were each successively diluted with RPMI 1640 to obtain test solutions having concentrations of […] in a 12×75 mm sterilized disposable culture tube. The final concentration of DMSO was adjusted to […] (v/v).
(§4) Candida albican strains were each subcultured in Sabourad Dextrose Agar, YM Agar or Potato Dextrose Agar medium at 35° C. for 2˜3 days. In the case of yeasts, a single colony was taken from prominent colonies and suspended in 0.85% sterile physiological saline solution and the turbidity of the suspension was adjusted to 80˜82% at 530 nm, and then diluted 50-fold with RPMI 1640 medium to 1.0×10^3˜5.0×10^3 CFU/ml. The turbidity of fungi was adjusted to 80˜82% and the suspension was diluted 50-fold to […]. Aspergillus fumigatus strains were subcultured in Malt Extract Agar for 7˜10 days, and a single colony was taken from prominent colonies and suspended in 0.85% sterile physiological saline solution and the suspension was adjusted to 0.108 at 530 nm, and then diluted 1000-fold with RPMI 1640 medium to 0.4×10^2˜5×10^4 CFU/ml. The turbidity of fungi was adjusted to 80˜82% and the suspension was diluted 50-fold to 0.4102˜0.5104 CFU/ml.
(§5) The strain solutions thus obtained were each seeded into a sterilized 96-well microplate, 0.1 ml of each test solution were added thereto, and […] of alamarblue was treated to each well (Biosource, #DAL1100). This procedure was repeated 2 times.
(§6) Minimal inhibitory concentration (MIC80) of each compound was determined as the lowest concentration of the test compounds required to reduce growth by 80% relative to a control strain not treated.
(§7) MIC80 of each of the compounds of which antifungal activities can be confirmed by Table 2 was determined using other test strains, i.e., Aspergillus fumigatus ATCC 16424 and MYA-1163, Aspergillus terreus ATCC 28301, Aspergillus flavus ATCC MYA-1004, and Aspergillus niger ATCC 9142.

[2] = tested on: Candida albican ATCC 64550; experiment: In vitro antifungal activity (MIC80), Candida albican ATCC 64550; conditions: Candida, ATCC64550; Table 2, 64550; read-out: Minimal inhibitory concentration (MIC80)
Procedure, shortened: (§8)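 MIC80 is the lowest concentration that cuts growth by 80% compared with untreated cells, with alamarBlue as the growth read-out. Compounds were serially diluted in RPMI 1640 (0.25–256 […]; DMSO 2% v/v final) and added to 1.0×10^3–5.0×10^3 CFU/ml yeast suspensions, in duplicate runs.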

[3] = tested on: Candida albican ATCC 62342; experiment: In vitro antifungal activity (MIC80), Candida albican ATCC 62342; conditions: Candida, ATCC62342; Table 2, 62342; read-out: Minimal inhibitory concentration (MIC80)
Procedure, shortened: as §8

[4] = tested on: Candida albican ATCC 64124; experiment: In vitro antifungal activity (MIC80), Candida albican ATCC 64124; conditions: Candida, ATCC64124; Table 2, 64124; read-out: Minimal inhibitory concentration (MIC80)
Procedure, shortened: as §8

[5] = tested on: Candida albican ATCC 96901; experiment: In vitro antifungal activity (MIC80), Candida albican ATCC 96901; conditions: Candida, ATCC96901; Table 2, ATCC 96901; read-out: Minimal inhibitory concentration (MIC80)
Procedure, shortened: as §8

[6] = tested on: Candida albican ATCC MYA-1003; experiment: In vitro antifungal activity (MIC80), Candida albican ATCC MYA-1003; conditions: Candida; Table 2, MYA 1003; read-out: Minimal inhibitory concentration (MIC80)
Procedure, shortened: as §8

[7] = tested on: Candida albican ATCC MYA-575; experiment: In vitro antifungal activity (MIC80), Candida albican ATCC MYA-575; conditions: Candida; Table 2, MYA 575; read-out: Minimal inhibitory concentration (MIC80)
Procedure, shortened: as §8

[8] = tested on: Aspergillus terreus ATCC 28301; experiment: In vitro antifungal activity (MIC80), Aspergillus terreus ATCC 28301; conditions: Aspergillus terreus, ATCC28301; Table 3, ATCC 28301; read-out: Minimal inhibitory concentration (MIC80)
Method: as §1, §2, §3, §4, §5, §6, §7

[9] = tested on: Candida albican ATCC 90873; experiment: In vitro antifungal activity (MIC80), Candida albican ATCC 90873; conditions: Candida, ATCC90873; Table 2, ATCC 90873; read-out: Minimal inhibitory concentration (MIC80)
Procedure, shortened: as §8

[10] = tested on: Candida albican ATCC MYA-573; experiment: In vitro antifungal activity (MIC80), Candida albican ATCC MYA-573; conditions: Candida; Table 2, MYA 573; read-out: Minimal inhibitory concentration (MIC80)
Procedure, shortened: as §8

[11] = tested on: Aspergillus niger ATCC 9142; experiment: In vitro antifungal activity (MIC80), Aspergillus niger ATCC 9142; conditions: Aspergillus niger, ATCC9142; Table 3, ATCC 9142; read-out: Minimal inhibitory concentration (MIC80)
Method: as §1, §2, §3, §4, §5, §6, §7

[12] = tested on: Aspergillus fumigatus (ATCC 16424); experiment: In vitro antifungal activity (MIC80), Aspergillus fumigatus ATCC 16424; conditions: Aspergillus fumigatus, read-out: Minimal inhibitory concentration (MIC80)
Procedure, shortened: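 Broth dilution in RPMI 1640 with 2% (v/v) final DMSO; A. fumigatus inoculum from Malt Extract Agar subculture diluted 1000-fold to 0.4×10^2˜5×10^4 CFU/ml, alamarblue added, repeated 2 times. MIC80 is lowest concentration reducing growth 80% versus untreated control.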

[13] = tested on: Candida albican ATCC MYA-574; experiment: In vitro antifungal activity (MIC80), Candida albican ATCC MYA-574; conditions: Candida; Table 2, MYA 574; read-out: Minimal inhibitory concentration (MIC80)
Procedure, shortened: as §8

[14] = tested on: Candida albican ATCC MYA-576; experiment: In vitro antifungal activity (MIC80), Candida albican ATCC MYA-576; conditions: Candida; Table 2, MYA 576; read-out: Minimal inhibitory concentration (MIC80)
Procedure, shortened: as §8

[15] = tested on: Aspergillus fumigatus MYA-1163; experiment: In vitro antifungal activity (MIC80), Aspergillus fumigatus MYA-1163; conditions: Aspergillus fumigatus, MYA1163; Table 3, MYA-1163; read-out: Minimal inhibitory concentration (MIC80)
Method: as §1, §2, §3, §4, §5, §6, §7

Row | Compound | MIC80 [1] [µg/mL] | MIC80 [2] [µg/mL] | MIC80 [3] [µg/mL] | MIC80 [4] [µg/mL] | MIC80 [5] [µg/mL] | MIC80 [6] [µg/mL] | MIC80 [7] [µg/mL] | MIC80 [8] [µg/mL] | MIC80 [9] [µg/mL] | MIC80 [10] [µg/mL] | MIC80 [11] [µg/mL] | MIC80 ([12]; ATCC16424, Table 2, ATCC 16424) [µg/mL] | MIC80 ([12]; ATCC16424, Table 3, ATCC 16424) [µg/mL] | MIC80 [13] [µg/mL] | MIC80 [14] [µg/mL] | MIC80 [15] [µg/mL]
1 | C[C@@H](N1CCN(c2nc3ccc(Cl)cc3s2)CC1)[C@](O)(Cn1cncn1)c1ccc(F)cc1F [Example 4, (2R,3R)-3-(4-(6-chlorobenzothiazol-2-yl)piperazin-1-yl)-2-(2,4-difluorophenyl)-1-(1H-1,2,4-triazol-1-yl)butan-2-ol] | 1 (≈ 1.98 µM) | 0.5 (≈ 0.99 µM) | 0.125 (≈ 0.248 µM) | 8 (≈ 15.8 µM) | 2 (≈ 3.96 µM) | > 128 | 0.125 (≈ 0.248 µM) | 1 (≈ 1.98 µM) | 0.125 (≈ 0.248 µM) | 0.125 (≈ 0.248 µM) | 2 (≈ 3.96 µM) | 0.5 (≈ 0.99 µM) | 0.5 (≈ 0.99 µM) | 0.25 (≈ 0.495 µM) | 0.125 (≈ 0.248 µM) | 1 (≈ 1.98 µM)
2 | C[C@@H](N1CCN(c2nc3ccc(Cl)cc3o2)CC1)[C@](O)(Cn1cncn1)c1ccc(F)cc1F [Example 6, (2R,3R)-3-(4-(6-chlorobenzooxazol-2-yl)piperazin-1-yl)-2-(2,4-difluorophenyl)-1-(1H-1,2,4-triazol-1-yl)butan-2-ol] | 0.25 (≈ 0.511 µM) | 0.5 (≈ 1.02 µM) | 0.25 (≈ 0.511 µM) | 4 (≈ 8.18 µM) | 2 (≈ 4.09 µM) | > 128 | 0.125 (≈ 0.256 µM) | 0.5 (≈ 1.02 µM) | 0.125 (≈ 0.256 µM) | 0.25 (≈ 0.511 µM) | 1 (≈ 2.05 µM) | 0.125 (≈ 0.256 µM) | 0.125 (≈ 0.256 µM) | 0.25 (≈ 0.511 µM) | 0.125 (≈ 0.256 µM) | 0.25 (≈ 0.511 µM)
3 | C[C@@H](N1CCN(c2nc3ccc(NCCN4CCOCC4)cc3s2)CC1)[C@](O)(Cn1cncn1)c1ccc(F)cc1F [Example 12, (2R,3R)-3-(4-(6-(2-morpholinoethylamino)benzothiazol-2-yl)piperazin-1-yl)-2-(2,4-difluorophenyl)-1-(1H-1,2,4-triazol-1-yl)butan-2-ol] | 4 (≈ 6.68 µM) | 2 (≈ 3.34 µM) | 8 (≈ 13.4 µM) | 4 (≈ 6.68 µM) | 2 (≈ 3.34 µM) | 8 (≈ 13.4 µM) | 1 (≈ 1.67 µM) | 4 (≈ 6.68 µM) | 1 (≈ 1.67 µM) | 2 (≈ 3.34 µM) | 4 (≈ 6.68 µM) | 2 (≈ 3.34 µM) | 2 (≈ 3.34 µM) | 4 (≈ 6.68 µM) | 0.25 (≈ 0.418 µM) | 4 (≈ 6.68 µM)
4 | C[C@@H](N1CCCN(c2ccccn2)CC1)[C@](O)(Cn1cncn1)c1ccc(F)cc1F [Example 38, (2R,3R)-2-(2,4-difluorophenyl)-3-(4-(pyridin-2-yl)-1,4-diazepan-1-yl)-1-(1H-1,2,4-triazol-1-yl)butan-2-ol] | 0.5 (≈ 1.17 µM) | 2 (≈ 4.67 µM) | 0.25 (≈ 0.583 µM) | 16 (≈ 37.3 µM) | 32 (≈ 74.7 µM) | 64 (≈ 149 µM) | 0.125 (≈ 0.292 µM) | 1 (≈ 2.33 µM) | 0.125 (≈ 0.292 µM) | 1 (≈ 2.33 µM) | 1 (≈ 2.33 µM) | 0.125 (≈ 0.292 µM) | 0.125 (≈ 0.292 µM) | 2 (≈ 4.67 µM) | 0.125 (≈ 0.292 µM) | 0.5 (≈ 1.17 µM)
5 | OC(Cn1cncn1)(Cn1cncn1)c1ccc(F)cc1F [F, fluconazole, reference compound] | > 128 | 32 (≈ 104 µM) | 8 (≈ 26.1 µM) | > 128 | > 128 | > 128 | 16 (≈ 52.2 µM) | > 128 | 4 (≈ 13.1 µM) | > 128 | > 128 | > 128 | > 128 | > 128 | 64 (≈ 209 µM) | > 128
6 | CCC(C)n1ncn(-c2ccc(N3CCN(c4ccc(OCC5COC(Cn6cncn6)(c6ccc(Cl)cc6Cl)O5)cc4)CC3)cc2)c1=O (stereo not drawn) [I, itraconazole, reference compound] | 0.25 (≈ 0.354 µM) | 0.5 (≈ 0.709 µM) | 0.25 (≈ 0.354 µM) | > 128 | > 128 | > 128 | 0.125 (≈ 0.177 µM) | 0.25 (≈ 0.354 µM) | 0.125 (≈ 0.177 µM) | 0.5 (≈ 0.709 µM) | 1 (≈ 1.42 µM) | 0.25 (≈ 0.354 µM) | 0.125 (≈ 0.177 µM) | > 128 | 0.125 (≈ 0.177 µM) | 0.5 (≈ 0.709 µM)

— US20100144712A1 (priority 2007, published 2010)
